Results reported in patent US11771725B2, “Lactobacillus having various functions, and use thereof” (University-Industry Cooperation Group of Kyung Hee …, priority 2015, dated 2023).

Key:
[1] = tested on: vascular permeability induced by compound 48/80; test: Inhibition of vascular permeability induced by compound 48/80 (Evans blue); format: in vivo; details: BALB/c mice, 1×10^9 CFU orally once a day for 3 days (control drugs 0.2 mg/mouse)
Experimental: It is known that itching-induced areas have increased vascular permeability. […] According to the same method as the above-described experiment for measurement of itching inhibitory activity, the drug was administered to the same mice. Next, physiological saline was injected subcutaneously into the back portion of the head of the mice of the normal group, and an itching inducer (50 μg of compound 48/80; Sigma, USA) was injected subcutaneously into the back portion of the head of the mice of the other test group. Next, 0.2 ml of 1% Evans blue solution (Sigma, USA) was injected into the tail vein, and after 1 hour, the mice were euthanized. The skin of the subcutaneously injected area was dissected, and incubated in 1 ml of 1N KOH at 37° C. overnight. On the next day, the incubated skin tissue was mixed with 4 ml of 0.6N phosphoric acid-acetone (5:13) mixture and centrifuged at 3000 rpm for 15 minutes, and the supernatant was collected and measured for absorbance at 620 nm. Inhibition (%) of vascular permeability was calculated using the following equation: Inhibition(%)={1−[absorbance of area treated with drug and itching inducer−absorbance of area not treated with itching inducer]/[absorbance of area treated with itching inducer−absorbance of area not treated with itching inducer]}×100

[2] = tested on: RBL-2H3 cell line (rat mast cell line); test: Inhibition of degranulation in IgE-sensitized RBL-2H3 cells; format: cell-based; details: RBL-2H3, lactic acid bacteria 1×10^4 CFU/ml
Experimental: The RBL-2H3 cell line (rat mast cell line, the Korean Cell Line Bank, Cat. No. 22256) was cultured with DMEM (Dulbeccos' modified Eagle's medium, Sigma, 22256) containing 10% FBS (fetal bovine serum) and L-glutamine in a humidified 5% CO2 incubator at 37° C. The cells contained in the culture medium were floated using trypsin-EDTA solution, and the floated cells were isolated, collected and used in the experiment. The collected RBL-2H3 cells were dispensed into a 24-well plate at a density of 5×10^5 cells/well and sensitized by incubation with 0.5 μg/ml of mouse monoclonal IgE for 12 hours. The sensitized cells were washed with 0.5 ml of siraganian buffer (119 mM NaCl, 5 mM KCl, 0.4 mM MgCl2, 25 mM PIPES, 40 mM NaOH, pH 7.2), and then incubated with 0.16 ml of siraganian buffer (supplemented with 5.6 mM glucose, 1 mM CaCl2), 0.1% BSA) at 37° C. for 10 minutes. Next, lactic acid bacteria as a test drug were added to the cell culture to a concentration of 1×10^4 CFU/ml, or 0.04 ml of DSCG (disodium cromoglycate) as a control drug was added to the cell culture, and after 20 minutes, the cells were activated with 0.02 ml of antigen (1 μg/ml DNP-BSA) at 37° C. for 10 minutes. […] Next, the reaction was stopped by addition of 0.2 ml of 0.1M Na2CO3/NaHCO3, and the absorbance at 405 nm was measured by an ELISA analyzer.

[3] = tested on: itching behavior induced by compound 48/80; test: Inhibition of itching induced by compound 48/80; format: in vivo; details: BALB/c mice, 1×10^9 CFU orally once a day for 3 days (control drugs 0.2 mg/mouse)
Experimental: At 1 hour after the last administration of the drug, the mice were allowed to stand in an observation cage (24 cm×22 cm×24 cm) for 10 minutes so as to be acclimated to the environment, and then the back portion of the head was shaved. […] Sigma, USA) by a 29-gauge needle. […] Scratching the injection area with the back foot was regarded as the itching behavior, and scratching other portions was not regarded.

Structure (SMILES) | Inhibition (%) vascular permeability [1] [%] | Inhibition (%) Degranulation ([2]; first experiment) [%] | Degranulation inhibition (%) ([2]; second experiment) | Inhibition (%) Itching [3] [%]
O=C([O-])c1cc(=O)c2c(OCC(O)COc3cccc4oc(C(=O)[O-])cc(=O)c34)cccc2o1.[Na+].[Na+] [DSCG, disodium cromoglycate] | 37 | 62 | 62 | 25
CN1CCCC(n2nc(Cc3ccc(Cl)cc3)c3ccccc3c2=O)CC1 (stereo not drawn) [Azelastine] | 68 |  |  | 65
